Measured values published in the supplement of paper PMC10307832.

Tests used:
Assay in all cases: relative viability (nuclei count vs DMSO), 5 days (fraction); higher = more cells survive
RU-SKI 43 + Navitoclax = compound: CC[C@@H](C)CNCC(=O)N1CCC2=C([C@@H]1COC3=CC=CC(=C3)C)C=CS2 [RU-SKI 43] + CC1(C)CCC(c2ccc(Cl)cc2)=C(CN2CCN(c3ccc(C(=O)NS(=O)(=O)c4ccc(N[C@H](CCN5CCOCC5)CSc5ccccc5)c(S(=O)(=O)C(F)(F)F)c4)cc3)CC2)C1 [Navitoclax] (partner 0.5 µM)
Outline: (§1)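 Lung cancer cell lines were seeded in 1536-well plates and dosed by pin tool the next day, with either a single drug or a fixed anchor-drug dose combined with five library-drug doses (not always all listed) spaced in √10 steps. Five days later, one step fixed the cells and stained their nuclei (final 0.05% Triton X-100, 1% formaldehyde, 1 ug/ml Hoechst), and nuclei were counted on 4× images. Relative viability is the nuclei count in treated wells divided by the count in vehicle wells, and each value is the median of duplicate plates.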

Irinotecan + OSI-027 = compound: CCc1c2c(nc3ccc(OC(=O)N4CCC(N5CCCCC5)CC4)cc13)-c1cc3c(c(=O)n1C2)COC(=O)[C@]3(O)CC [Irinotecan] + COc1cccc2cc(-c3nc([C@H]4CC[C@H](C(=O)O)CC4)n4ncnc(N)c34)[nH]c12 [OSI-027] (partner 0.5 µM)
Outline: as §1

MK-8033 + Trametinib = compound: Cn1cc(-c2cnc3ccc4ccc(CS(=O)(=O)NCc5ccccn5)cc4c(=O)c3c2)cn1 [MK-8033] + CC(=O)Nc1cccc(-n2c(=O)n(C3CC3)c(=O)c3c(Nc4ccc(I)cc4F)n(C)c(=O)c(C)c32)c1 [Trametinib] (partner 0.02 µM)
Outline: as §1

MK-8033 + Linsitinib = compound: Cn1cc(-c2cnc3ccc4ccc(CS(=O)(=O)NCc5ccccn5)cc4c(=O)c3c2)cn1 [MK-8033] + C[C@]1(O)C[C@@H](c2nc(-c3ccc4ccc(-c5ccccc5)nc4c3)c3c(N)nccn32)C1 [Linsitinib] (partner 1 µM)
Outline: as §1

Cell Line	relative viability (RU-SKI 43 + Navitoclax; first compound 0.1 µM)	relative viability (RU-SKI 43 + Navitoclax; first compound 0.3162 µM)	relative viability (RU-SKI 43 + Navitoclax; first compound 1 µM)	relative viability (RU-SKI 43 + Navitoclax; first compound 3.162 µM)	relative viability (RU-SKI 43 + Navitoclax; first compound 10 µM)	relative viability (Irinotecan + OSI-027; first compound 0.6325 µM)	relative viability (Irinotecan + OSI-027; first compound 2 µM)	relative viability (Irinotecan + OSI-027; first compound 6.325 µM)	relative viability (Irinotecan + OSI-027; first compound 20 µM)	relative viability (MK-8033 + Trametinib; first compound 0.02 µM)	relative viability (MK-8033 + Trametinib; first compound 0.06325 µM)	relative viability (MK-8033 + Trametinib; first compound 0.2 µM)	relative viability (MK-8033 + Trametinib; first compound 0.6325 µM)	relative viability (MK-8033 + Trametinib; first compound 2 µM)	relative viability (MK-8033 + Linsitinib; first compound 0.02 µM)	relative viability (MK-8033 + Linsitinib; first compound 0.06325 µM)	relative viability (MK-8033 + Linsitinib; first compound 0.2 µM)	relative viability (MK-8033 + Linsitinib; first compound 2 µM)	relative viability (MK-8033 + Linsitinib; first compound 0.6325 µM)
HCC-78	0.758	0.96	1.03	0.834	0.772	0.37	0.35	0.229	0.235	0.611	0.614	0.739	0.325	0.578	0.474	0.501	0.474	0.581	
NCI-H441	0.677	0.498	0.616	0.611	0.542	0.371	0.448	0.281	0.327	0.376	0.343	0.391	0.487	0.437	0.505	0.401	0.54	0.53	0.551
NCI-H1299	1.04	1.09	1.07	1.01	1.03										0.997	0.997	0.958	0.988	1.05
LU99A	0.779	0.793	0.87	0.885	0.835	0.202	0.243	0.181	0.242	0.582	0.48	0.492	0.582	0.503	0.541	0.517	0.537	0.478	0.479
NCI-H1651	1.05	1.24	1.14	1.01	1.01	0.532	0.485	0.349	0.174	0.823	0.846	0.845	0.809	0.861	1.07	0.835	0.824	0.856	1.03
HARA	1.19	1.14	1.15	1.16	1.13	0.148	0.186	0.142	0.0795	0.509	0.525	0.825	0.423	0.689	0.779	0.78	0.893	0.897	1.03
RERF-LC-KJ	1.07	1.29	1.09	1.21	0.9	0.364	0.492	0.534	0.112	0.818	0.843	0.812	0.828	0.812	0.885	0.902	0.836	0.938	0.908
LCLC-103H						0.483	0.496	0.339	0.347	0.637	0.705	0.673	0.672	0.696	1.01	1.04	1.05	1.17	1.11
SK-LU-1	0.789	0.817	0.841	0.831	1.03	0.302	0.301	0.293	0.238	0.484	0.482	0.437	0.445	0.468	1.14	1.14	0.951	0.878	1.05
Calu-6	0.848	0.977	0.72	0.955	0.691										0.895	0.96	0.874	0.876	1.01
NCI-H1648						0.238	0.242	0.255	0.268	0.499		0.408	0.499	0.432					
NCI-H522						1.07	0.643	0.645	0.569	0.72	0.701	0.669	0.657	0.766					
LOU-NH91	0.679	0.746	0.741	0.714	0.683	0.688	0.688	0.386	0.365	0.761	0.73	0.756	0.789	0.792	0.93		0.912	0.992	0.89
HCC-366	1.04	1.5	1.06	1.18	1.05	0.144	0.714	0.0844	0.0682	0.43	0.346	0.314	0.279	0.362	0.675	0.565	0.619	0.643	0.587
CAL-12T	1.2	1.53	1.54	1.13	1.14		0.798	0.357	0.101	0.347	0.297	0.31	0.413	0.329	0.738	0.861	0.72	0.771	0.903
PC-3 [JPC-3]	0.74	0.748	0.783	0.792	0.779	0.46	0.785	0.397	0.344	0.599		0.68	0.708	0.666	0.947		0.863	0.987	0.961
NCI-H2087	1.05	0.94	0.943	0.911	0.998	0.239	0.339	0.157	0.166	0.213	0.147	0.187	0.214	0.254	1.15	0.973	0.832	0.915	0.91
NCI-H1395	1.15	1.15	1.32	1.14	1.02	0.352	0.561	0.45	0.438	0.911	0.983	1.01	1.05	1.03	1.09	1.05	1.08	0.892	1.03

Cell Line	relative viability (RU-SKI 43 + Navitoclax; first compound 0.1 µM)	relative viability (RU-SKI 43 + Navitoclax; first compound 0.3162 µM)	relative viability (RU-SKI 43 + Navitoclax; first compound 1 µM)	relative viability (RU-SKI 43 + Navitoclax; first compound 3.162 µM)	relative viability (RU-SKI 43 + Navitoclax; first compound 10 µM)	relative viability (Irinotecan + OSI-027; first compound 0.6325 µM)	relative viability (Irinotecan + OSI-027; first compound 2 µM)	relative viability (Irinotecan + OSI-027; first compound 6.325 µM)	relative viability (Irinotecan + OSI-027; first compound 20 µM)	relative viability (MK-8033 + Trametinib; first compound 0.02 µM)	relative viability (MK-8033 + Trametinib; first compound 0.06325 µM)	relative viability (MK-8033 + Trametinib; first compound 0.2 µM)	relative viability (MK-8033 + Trametinib; first compound 0.6325 µM)	relative viability (MK-8033 + Trametinib; first compound 2 µM)	relative viability (MK-8033 + Linsitinib; first compound 0.02 µM)	relative viability (MK-8033 + Linsitinib; first compound 0.06325 µM)	relative viability (MK-8033 + Linsitinib; first compound 0.2 µM)	relative viability (MK-8033 + Linsitinib; first compound 2 µM)	relative viability (MK-8033 + Linsitinib; first compound 0.6325 µM)
ABC-1							0.494	0.341	0.093						0.744	0.791	0.676	0.657	0.829
NCI-H2023	1.01	1.3	1.08	1.09	0.977	0.319	0.377	0.238	0.0537	0.552	0.511	0.453	0.475	0.366	0.651	0.533	0.473	0.415	0.536
PC-14	0.962	1.3	1.08	0.985	0.957	0.286	0.498	0.243	0.117	0.723	0.604	0.649	0.774	0.654	0.978	0.843	0.859	0.858	0.939
ChaGo-K-1	1.26	0.996	1.58	0.569	0.742	0.272	0.39	0.215	0.212	0.877	0.717	0.802	0.886	0.729					
NCI-H650						0.467	0.587	0.316	0.277	1.06	1.02	0.973	0.939	0.884	0.868	0.91	0.85	0.773	0.805
EBC-1	0.358	0.294	0.401	0.366	0.223										0.938	0.68	0.895	0.167	1.05
NCI-H2228	0.91	1.3	0.995	1.25	0.987	0.341	0.472	0.288	0.342	0.278	0.403	0.435	0.341	0.582	0.577	0.629	0.537	0.625	0.761
NCI-H1703	1.2	1.08	0.987	1.16	0.535										0.552	0.762	0.556	0.446	0.89
NCI-H358						0.715	0.377	0.217	0.125	0.141	0.124	0.11	0.146	0.131	0.826	0.704	0.731	0.651	0.658
SW 900						0.298	0.632	0.4	0.424	0.762	0.583	0.612	0.936	0.848					
NCI-H1650	1.17	1.38	1.41	1.06	0.813		0.902	0.575	0.196	0.568	0.637	0.53	0.625	0.54					
A549	1.24	1.51	1.17	1.23	1.08										0.627	0.571	0.52	0.581	0.515
NCI-H1563						0.704	0.843	0.865	0.589						1.26	1.15	1.13	1.19	1.23
NCI-H2170	0.499	0.64	0.643	0.625	0.58	0.546	0.767	0.255	0.174	0.838	0.92	0.844	0.922	0.824					
NCI-H1623						0.415	0.415	0.303	0.294										
IA-LM	0.752	0.751	0.856	0.738	0.824										0.522	0.465	0.654	0.587	0.61
NCI-H2342						0.58	0.551	0.607	0.439	0.83	0.773	0.827	0.999	0.83					
NCI-H661						0.653	0.654	0.415	0.212	0.544	0.498	0.577	0.57	0.515	0.55	0.5	0.53	0.507	0.59
